Here are results for two compounds from US6867213B2, “(2S)-2-(adamantan-1-ylmethoxycarbonylamino)-3-(4-(2-(1,4,5,6-tetrhydropyrimidin-2-ylcarbamoyl)ethyl)benzoylamino)propionic acid isopropyl ester, its preparation and its use” (Aventis Pharma Deutschland GmbH, priority 2000, dated 2005).

Data set [1] concerns thyroparathyroidectomized (TPTX) rats. Description: PTH-induced hypercalcemia in the TPTX rat model of bone resorption. In kind it is in vivo, rat (male Sprague Dawley). As to conditions: PTH treated TPTX rats; s.c. twice at 30 mg/kg, at time 0 and 3 h after start of PTH infusion; serum collected at 6 hours. An excerpt: 3) Pharmacological Testing: PTH-Induced Hypercalcemia in the TPTX Rat Model of Bone Resorption
In this in vivo model a stimulation of bone resorption is induced in thyroparathyroidectomized (TPTX) rats by the infusion of parathyroid hormone (PTH). The changes in bone resorption are monitored by measuring the serum calcium concentration which is directly related to the extent of bone resorption.
Male Sprague Dawley rats (OFA-IFFA CREDO, France) weighting 150-200 g were thyroparathyroidectomized by the supplier. The rats were allowed free access to a standard commercial pelleted diet containing 7 g Ca/kg (UAR) and Eau de Volvic water. The success of thyroparathyroidectomy was tested by measuring serum calcium concentrations 8 days after operation in overnight fasted animals. Rats were considered as TPTX when the serum calcium level was <80 mg/l.
For treatment with PTH, rat PTH(1-34) (Bachem) was dissolved in 0.15 M sodium chloride solution containing 2% Cys-HCl and delivered via osmotic minipumps (ALZET 2001D) at 200 pmol/kg/h. […]
Serum total calcium concentrations (=calcemia) were measured colorimetrically (Ciba-Corning) using a IEMS Labsystems microplate reader at 540 nm. The differences between the mean values of calcemia in the groups were analysed for variance and by Dunnett's test. The activity of the test compound was calculated as % effect according to the formula: [formula]

Where a name gives a salt, the structure may show the parent alone.

As to `CC(C)OC(=O)[C@H](CNC(=O)c1ccc(CCC(=O)NC2=NCCCN2)cc1)NC(=O)OCC12CC3CC(CC(C3)C1)C2` (as salt: hydrochloride) [formula IIc, (2S)-2-(Adamantan-1-ylmethoxycarbonylamino)-3-(4-(2-(1,4,5,6-tetrahydropyrimidin-2-ylcarbamoyl)ethyl)benzoylamino)propionic Acid Isopropyl Ester Hydrochloride], the melting point – broadly, the temperature of the solid-liquid transition – was in the range of 208 to 210 °C.

With `CC(C)OC(=O)[C@H](CNC(=O)c1ccc(CCC(=O)NC2=NCCCN2)cc1)NC(=O)OCC12CC3CC(CC(C3)C1)C2` [formula IIc, (2S)-2-(Adamantan-1-ylmethoxycarbonylamino)-3-(4-(2-(1,4,5,6-tetrahydropyrimidin-2-ylcarbamoyl)ethyl)benzoylamino)propionic Acid Isopropyl Ester Hydrochloride], the “% effect (on calcemia = serum total calcium concentration)” value in data set [1] was −97%.
